# Experimental data published in PMC5656322, “BAK1 is involved in AtRALF1-induced inhibition of root cell expansion” (PLoS Genetics, 2017).
# Where no end group is shown, it is not given here.
# Tests used:
# [1] = tested on: microsomal fractions from the roots of Arabidopsis; assay: Binding assay with acridinium-labeled AtRALF1, microsomal fractions; design: species or system Arabidopsis thaliana
# Experimental: (A) Whole seedlings (5 days old) were treated for 15 min with acriAtRALF1 (acriR1), acriR1 and an excess of unlabeled AtRALF34 (R34), RALF1(9–49) [(R-9-49)], or AtRALF1 (R1), as indicated. The values are the mean ± SD of two measurements (5 seedlings each). (B) Microsomal fractions from wild-type and bak1 mutants were incubated for 15 min with acriAtRALF1 (acriR1), with acriR1 and an excess of unlabeled RALF1(9–49) [(R-9-49)], or with AtRALF1 (R1), as indicated. The values are the mean ± SD of two measurements. The proportions of labeled: unlabeled proteins are shown in parentheses. Single and triple asterisks indicate P < 0.1 and P < 0.01 (Student’s t test).
# Arabidopsis seedlings were grown for 5 days on vertical plates. Roots were homogenized in extraction buffer [300 mM sucrose, 100 mM Tris-HCl pH 7.5, 25 mM EDTA, 25 mM NaF, 1 mM Na2MoO4, 1 mM PMSF and protease inhibitor cocktail (Roche), adjusted to pH 6.2], and the homogenate was spun at 2,000 x g for 10 min at 4 °C. The supernatant was recovered and centrifuged at 100,000 x g for 50 min at 4 °C to precipitate the microsomal pellet. The pellet was resuspended in the extraction buffer plus 0.5% Triton-X. Seedlings or microsomal fractions were placed in 200 μl of medium and incubated with 7 nM acridinium-labeled peptide (acriAtRALF1 or acriAtRALF34) and different concentrations of AtRALF1, AtRALF34 or RALF1(9–49) for 15–20 min at 4 °C on a shaker. After incubation, the seedlings or microsomal fractions were washed three times with the same medium. Unless indicated otherwise, five entire seedlings and approximately 10 ng of microsomal fractions were used per treatment. The resulting luminescence emissions from the acridinium were measured using a microplate reader (Biotec ELx 800) at 2 s after injecting 50 μl of a solution containing 20 mM H2O2 in 0.1 M NaOH. These experiments were repeated at least three times using independent biological replicates. Duplicates were used for each concentration or treatment. The data shown are from one representative experiment.
# [2] = tested on: Arabidopsis endodermic root cells; assay: Root cell length, endodermis of differentiation zone; type: in vivo, Arabidopsis thaliana; conditions: 10 μM, 2 days
# Experimental: (A) and (B) Arabidopsis seedlings (2 days old) were treated with 10 μM AtRALF1 or water (H20) for 2 days. The values are the mean ± SD of at least 25 seedlings. Triple asterisks indicate P < 0.01 (Student’s t test); ns, not significant. (C) Four-day-old seedlings were transferred to media containing different concentrations of AtRALF1, and the primary root length was measured after 8 days of treatment. The data represent the mean value ± SD of 30 seedlings. […] Representative Arabidopsis seedlings after 8 days of treatment with AtRALF1 are shown below. Seedlings were arranged on plates after the treatment for imaging. Scale bars, 1 cm. (D) Two-day-old seedlings were treated with 10 μM AtRALF1 or water for 2 days, and root cell length was measured after 2 days of treatment. Cells from the root endodermis in the differentiation zone were measured. The values are the mean ± SD of approximately 150 cells. […]
# Aliquots of 1 ml of medium containing seeds were distributed into 24-well plates. The peptides (10 μM) were added after 2 days, and the root length was measured 2 days after treatment. […] The root length was measured 8 days after treatment unless stated otherwise. […] Quantitative data were obtained as previously described. […] For cell length measurements, AtRALF1 peptide (10 μM) was added after 2 days of germination, and the cell length was measured after 2 days of treatment. […]
# [3] = tested on: AtPRP3, AtHRGP2, CPD and DWF4 genes; conditions: cited from earlier work
# From the text: AtRALF1-overexpressing plants are less sensitive to exogenous brassinosteroids (BRs). […] AtRALF1 also induces two cytochrome P450 monooxygenase genes related to the BR biosynthetic pathway: Constitutive Photomorphism and Dwarfism (CPD) and DWARF4 (DWF4). We exposed the bak1 mutants to the same concentration of AtRALF1 and evaluated the capacity to induce the AtPRP3, AtHRGP2, CPD and DWF4 genes. None of the AtRALF1-inducible genes were ...
# [4] = tested on: cytosolic Ca^2+ in Arabidopsis seedlings; assay: Ca^2+ mobilization assay (apoaequorin luminescence); type: in vivo, Arabidopsis thaliana
# Experimental: The cytoplasmic Ca^2+ assay was performed in Arabidopsis seedlings as described previously. Changes in Ca^2+ levels were measured using an Arabidopsis line homozygous for the single insertion of a transgene encoding a cytoplasmically expressed apoaequorin protein driven by the constitutive promoter 35S [53], here denoted Wt-aeq. Wt-aeq plants were crossed with bak1-3 mutants, and T3 generation plants overexpressing apoaequorin and containing a T-DNA insertion in the BAK1 gene, named bak1-3-aeq, were selected and evaluated using semi-quantitative RT-PCR with specific primers (S1 Table). Arabidopsis seedlings were grown in plates for 4 days. A single seedling was transferred into each well of a 96-well white microplate (Thermo Labsystems) containing 200 μl of medium supplemented with […] coelenterazine cp (Biotium) and incubated in the dark at 24 °C for 16 h. Each well containing a single seedling received recombinant AtRALF1 or acridinium-labeled AtRALF1 at a final concentration of 5, 10 or 100 nM as indicated. The resulting luminescence emission was monitored using a microplate reader (Biotec ELx 800) and 20 time-points for approximately 160 s. The experiments were repeated at least three times using independent biological replicates. The data shown are from one representative experiment.
substance,measurement,setting,value
AtRALF1: root-specific RALF isoform in Arabidopsis; recombinant peptide hormone produced in E. coli (ATTKYISYQSLKRNSVPCSRRGASYYNCQNGAQANPYSRGCSKIARCRS; ends and bridges not checked; cysteine pairing not given here),share of AtRALF1 binding due to BAK1,[1]; microsomal fractions from roots,approximately 15%
same,"acriAtRALF1 binding reduced to, of the total","[1]; microsomal fractions of wild-type and bak1, 10-fold excess of AtRALF1",approximately 30%
same,"acriAtRALF1 binding reduced to, of the total binding","[1]; microsomal fractions of wild-type and bak1, 100- or 500-fold excess of AtRALF1",approximately 60%
same,root cell length vs water-treated control,"[2]; bak1-1, bak1-3, bak1-4",showed no difference between AtRALF1-treated plants and the water-treated control
same,reduction of root cell length vs water-treated control,"[2]; wild-type, ~150 cells",58%
same,induction of AtPRP3 and AtHRGP2 genes,"[3]; Arabidopsis seedling roots, ref [9]","induces, in a dose-dependent manner"
same,induction of CPD and DWF4 genes,[3]; ref [9],induces
same,AtEXPA5 expression,"[3]; roots of treated seedlings, ref [16]–[18]",repressed in the roots of AtRALF1-treated seedlings
same,increase in cytoplasmic Ca^2+,"[4]; acriAtRALF1 vs unlabeled AtRALF1, apoaequorin seedlings (S17A Fig)",induced an increase in cytoplasmic Ca^2+
same,cytosolic calcium increase,"[4]; bak1-3-aeq plants, 10 and 100 nM",cytosolic calcium increase similar to plants expressing the apoaequorin gene in a wild-type background
